Experimental data reported in patent US12227488B2, “Small molecule degraders of Helios and methods of use” (DANA-FARBER CANCER INSTITUTE, INC., priority 2018, dated 2025).

Columns and labels:
CRBN and Helios (IKZF2) = target: T1, CRBN and Helios (IKZF2) (Homo sapiens, UniProt Q96SW2+Q9UKS7); assay: TR-FRET dimerization assay (CRBN-IKZF2 ternary complex formation); format: binding; conditions: n=1
T1 construct: His (N); Strep (N)
Method in brief: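 BODIPY-labeled DDB1ΔB-CRBN and in vitro biotinylated IKZF2 were treated with increasing compound concentrations plus tracer Terbium-Streptavidin and incubated 15 min at rt. Recruitment was quantified as the 520/490 nm TR-FRET ratio; values are single measurements (n=1), each averaged from at least three technical replicates.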

SALL4 ZNF1-2 = target: T2, SALL4 ZNF1-2 (Homo sapiens, UniProt Q96SW2+Q9UJQ4); assay: Cellular degradation assay, eGFP-SALL4 ZnF1-2 fusion with mCherry reporter in Flp-In 293 cells; format: cell-based; conditions: 5 h incubation, n=1
T2 construct: IKZF1Δ, IKZF2Δ, GSPT1 and SALL4 ZnF1-2 were subcloned; expressed in transfected cells; host or cells: Flp-In 293
Method in brief: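 Flp-In 293 cells stably expressing eGFP-SALL4 ZnF1-2 fusion plus mCherry reporter were treated with compound titrations (0.5% DMSO) for 5 hours. Imaging at 488/561 nm gave, per well, the fraction of GFP-positive among mCherry-positive cells.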

GSPT1 = GSPT1 (Homo sapiens, UniProt P15170+Q96SW2); assay: Cellular degradation assay, eGFP-GSPT1 fusion with mCherry reporter in Flp-In 293 cells; format: cell-based; parameters: expressed in transfected cells; host or cells: Flp-In 293; conditions: 5 h incubation, n=1
Method in brief: (§1)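 Flp-In 293 cells stably expressing eGFP-tagged degron fusions with P2A-mCherry reporter were treated with compound titrations (0.5% DMSO) for 5 hours. Imaging quantified GFP-positive/mCherry-positive cell fraction per well; DC50 at 5 h from nonlinear variable-slope fit.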

IKZF2 = assay: Cellular degradation assay, eGFP-IKZF2Δ fusion with mCherry reporter in Flp-In 293 cells; format: cell-based; conditions: 5 h incubation, n=1
Method in brief: as §1

IKZF1 = target: T3, IKZF1 (Homo sapiens, UniProt Q13422); assay: Cellular degradation assay, eGFP-IKZF1Δ fusion with mCherry reporter in Flp-In 293 cells; format: cell-based; conditions: 5 h incubation, n=1
T3 construct: expressed in transfected cells; host or cells: Flp-In 293
Method in brief: as §1

[1] = compound concentration 6.6667E−05
[2] = compound concentration 6.6667E−06
[3] = compound concentration 6.6667E−07 (667 nM)
[4] = compound concentration 2.00E−05
[5] = compound concentration 2.00E−06
[6] = compound concentration 2.00E−07

Sequence of GSPT1 (P15170 whole entry, the tested form may be a part): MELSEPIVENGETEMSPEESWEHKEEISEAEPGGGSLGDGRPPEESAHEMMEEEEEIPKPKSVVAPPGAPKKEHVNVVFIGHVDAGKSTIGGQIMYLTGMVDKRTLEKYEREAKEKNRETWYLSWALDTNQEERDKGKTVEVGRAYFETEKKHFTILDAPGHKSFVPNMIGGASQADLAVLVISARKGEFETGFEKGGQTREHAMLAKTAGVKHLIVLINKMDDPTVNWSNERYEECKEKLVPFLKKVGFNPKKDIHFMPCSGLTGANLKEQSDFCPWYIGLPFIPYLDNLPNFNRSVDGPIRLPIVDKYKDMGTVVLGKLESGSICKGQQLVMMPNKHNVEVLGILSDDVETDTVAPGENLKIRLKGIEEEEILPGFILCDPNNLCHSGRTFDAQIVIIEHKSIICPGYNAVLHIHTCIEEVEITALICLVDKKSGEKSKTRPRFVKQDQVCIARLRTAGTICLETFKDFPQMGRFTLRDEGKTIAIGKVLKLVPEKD
Sequence of GSPT1 (Q96SW2 whole entry, the tested form may be a part): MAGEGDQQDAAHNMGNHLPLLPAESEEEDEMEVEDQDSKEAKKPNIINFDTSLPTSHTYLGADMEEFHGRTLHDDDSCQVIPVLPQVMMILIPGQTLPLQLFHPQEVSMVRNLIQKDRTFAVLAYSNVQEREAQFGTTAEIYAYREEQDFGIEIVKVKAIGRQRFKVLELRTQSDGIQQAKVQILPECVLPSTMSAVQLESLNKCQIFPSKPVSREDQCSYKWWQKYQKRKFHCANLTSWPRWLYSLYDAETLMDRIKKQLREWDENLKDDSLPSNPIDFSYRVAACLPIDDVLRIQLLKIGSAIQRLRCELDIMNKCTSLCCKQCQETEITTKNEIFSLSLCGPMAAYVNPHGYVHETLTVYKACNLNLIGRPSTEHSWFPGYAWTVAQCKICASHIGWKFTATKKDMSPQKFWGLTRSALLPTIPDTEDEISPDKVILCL
Sequence of GSPT1 (Q16531 whole entry partner, the tested form may be a part): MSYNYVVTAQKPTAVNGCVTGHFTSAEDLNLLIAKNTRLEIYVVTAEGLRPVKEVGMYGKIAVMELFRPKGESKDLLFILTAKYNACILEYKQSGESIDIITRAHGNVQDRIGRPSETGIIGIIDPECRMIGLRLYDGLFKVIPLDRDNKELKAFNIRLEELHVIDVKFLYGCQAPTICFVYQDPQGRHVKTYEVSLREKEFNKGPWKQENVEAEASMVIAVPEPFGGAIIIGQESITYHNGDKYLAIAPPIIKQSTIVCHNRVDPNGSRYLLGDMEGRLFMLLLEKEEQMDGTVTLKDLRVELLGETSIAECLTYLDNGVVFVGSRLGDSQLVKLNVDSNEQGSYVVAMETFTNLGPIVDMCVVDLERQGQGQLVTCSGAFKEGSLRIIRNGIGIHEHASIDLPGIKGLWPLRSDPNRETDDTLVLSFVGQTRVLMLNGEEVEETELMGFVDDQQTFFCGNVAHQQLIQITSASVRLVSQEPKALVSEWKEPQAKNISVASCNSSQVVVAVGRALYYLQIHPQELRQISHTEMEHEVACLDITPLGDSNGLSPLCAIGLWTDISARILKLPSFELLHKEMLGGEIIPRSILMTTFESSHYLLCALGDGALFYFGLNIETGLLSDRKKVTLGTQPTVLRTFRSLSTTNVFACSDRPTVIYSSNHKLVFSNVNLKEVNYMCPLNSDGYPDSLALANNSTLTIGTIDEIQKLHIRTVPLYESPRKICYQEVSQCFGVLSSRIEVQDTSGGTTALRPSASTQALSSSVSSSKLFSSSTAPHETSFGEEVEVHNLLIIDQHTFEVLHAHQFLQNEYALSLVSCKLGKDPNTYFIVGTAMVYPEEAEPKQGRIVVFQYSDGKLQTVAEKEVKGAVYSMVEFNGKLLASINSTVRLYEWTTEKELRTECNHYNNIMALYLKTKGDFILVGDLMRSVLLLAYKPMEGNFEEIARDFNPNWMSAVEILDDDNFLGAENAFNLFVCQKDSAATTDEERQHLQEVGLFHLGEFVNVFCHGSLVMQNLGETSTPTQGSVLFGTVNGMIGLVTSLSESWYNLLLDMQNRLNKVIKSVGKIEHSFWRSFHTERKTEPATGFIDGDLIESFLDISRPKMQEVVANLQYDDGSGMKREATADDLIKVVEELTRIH
T3 sequence (Q13422 83-213 isoform Q13422-7 limits assumed): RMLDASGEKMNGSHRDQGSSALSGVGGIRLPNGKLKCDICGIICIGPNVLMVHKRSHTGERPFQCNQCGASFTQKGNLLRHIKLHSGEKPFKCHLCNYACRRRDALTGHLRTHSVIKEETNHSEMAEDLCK
T3 sequence (Q96SW2 whole entry partner, the tested form may be a part): as the sequence (Q96SW2 whole entry, the tested form may be a part) above
T3 sequence (Q16531 2-1140 partner limits assumed): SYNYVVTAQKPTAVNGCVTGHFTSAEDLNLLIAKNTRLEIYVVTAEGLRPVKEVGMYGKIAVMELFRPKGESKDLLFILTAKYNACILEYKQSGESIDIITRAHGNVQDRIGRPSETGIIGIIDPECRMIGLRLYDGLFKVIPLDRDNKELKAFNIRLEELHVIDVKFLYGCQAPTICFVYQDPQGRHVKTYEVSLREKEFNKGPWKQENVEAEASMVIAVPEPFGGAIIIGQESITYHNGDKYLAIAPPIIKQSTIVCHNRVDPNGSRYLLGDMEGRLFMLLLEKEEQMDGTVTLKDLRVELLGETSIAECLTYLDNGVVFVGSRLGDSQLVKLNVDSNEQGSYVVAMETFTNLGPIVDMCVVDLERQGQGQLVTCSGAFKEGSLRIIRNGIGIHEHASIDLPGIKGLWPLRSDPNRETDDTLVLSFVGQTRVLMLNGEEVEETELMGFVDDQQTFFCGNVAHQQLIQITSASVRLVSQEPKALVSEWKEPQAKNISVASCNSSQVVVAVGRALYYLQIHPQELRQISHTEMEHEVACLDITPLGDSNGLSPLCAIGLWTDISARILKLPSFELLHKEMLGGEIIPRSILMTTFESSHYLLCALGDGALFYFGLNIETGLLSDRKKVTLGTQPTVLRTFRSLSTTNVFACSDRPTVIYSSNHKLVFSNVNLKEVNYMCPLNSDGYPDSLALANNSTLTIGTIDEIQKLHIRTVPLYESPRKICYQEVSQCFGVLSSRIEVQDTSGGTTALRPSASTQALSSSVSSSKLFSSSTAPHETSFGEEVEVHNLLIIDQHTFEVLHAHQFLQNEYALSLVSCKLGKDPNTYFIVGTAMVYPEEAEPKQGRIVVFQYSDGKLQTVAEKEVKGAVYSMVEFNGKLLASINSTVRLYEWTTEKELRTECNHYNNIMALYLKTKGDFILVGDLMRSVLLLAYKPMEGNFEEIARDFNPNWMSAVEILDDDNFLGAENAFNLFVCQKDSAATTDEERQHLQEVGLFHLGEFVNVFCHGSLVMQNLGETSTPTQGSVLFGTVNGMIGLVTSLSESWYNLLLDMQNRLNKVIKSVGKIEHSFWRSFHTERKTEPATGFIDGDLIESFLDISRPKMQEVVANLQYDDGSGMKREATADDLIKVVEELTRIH
T2 sequence (Q9UJQ4 378-438 limits assumed): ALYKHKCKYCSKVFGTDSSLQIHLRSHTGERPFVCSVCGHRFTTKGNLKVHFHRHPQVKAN
T2 sequence (Q96SW2 whole entry, the tested form may be a part): as the sequence (Q96SW2 whole entry, the tested form may be a part) above
T2 sequence (Q16531 whole entry partner, the tested form may be a part): as the sequence (Q16531 whole entry partner, the tested form may be a part) above
T1 sequence (Q96SW2 whole entry): as the sequence (Q96SW2 whole entry, the tested form may be a part) above
T1 sequence (Q9UKS7 whole entry): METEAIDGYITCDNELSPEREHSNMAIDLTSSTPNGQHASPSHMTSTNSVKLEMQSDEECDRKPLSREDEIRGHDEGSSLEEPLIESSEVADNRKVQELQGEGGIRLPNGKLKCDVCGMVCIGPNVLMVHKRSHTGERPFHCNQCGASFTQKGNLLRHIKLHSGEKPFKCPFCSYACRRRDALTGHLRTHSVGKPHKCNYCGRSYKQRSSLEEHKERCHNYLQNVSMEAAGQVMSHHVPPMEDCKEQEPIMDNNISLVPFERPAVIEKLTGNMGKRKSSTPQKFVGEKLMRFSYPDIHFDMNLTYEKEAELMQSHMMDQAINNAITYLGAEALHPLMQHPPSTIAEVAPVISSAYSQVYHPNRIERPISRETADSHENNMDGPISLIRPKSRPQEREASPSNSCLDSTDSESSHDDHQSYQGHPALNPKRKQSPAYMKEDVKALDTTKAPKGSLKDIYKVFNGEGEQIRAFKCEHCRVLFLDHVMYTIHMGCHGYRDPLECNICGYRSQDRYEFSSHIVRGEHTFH

SMILES | TR-FRET-IKZF2 (Normalized to CC-885) (CRBN and Helios (IKZF2); [1]) | TR-FRET-IKZF2 (Normalized to CC-885) (CRBN and Helios (IKZF2); [2]) | TR-FRET-IKZF2 (Normalized to CC-885) (CRBN and Helios (IKZF2); [3]) | SALL4 ZNF1-2 GFP/RFP Relative Abundance (SALL4 ZNF1-2; [4]) | SALL4 ZNF1-2 GFP/RFP Relative Abundance (SALL4 ZNF1-2; [5]) | SALL4 ZNF1-2 GFP/RFP Relative Abundance (SALL4 ZNF1-2; [6]) | GSPT1 GFP/RFP Relative Abundance (GSPT1; [4]) | GSPT1 GFP/RFP Relative Abundance (GSPT1; [5]) | GSPT1 GFP/RFP Relative Abundance (GSPT1; [6]) | IKZF2 GFP/RFP Relative Abundance (IKZF2; [4]) | IKZF2 GFP/RFP Relative Abundance (IKZF2; [5]) | IKZF2 GFP/RFP Relative Abundance (IKZF2; [6]) | IKZF1 GFP/RFP Relative Abundance (IKZF1; [4]) | IKZF1 GFP/RFP Relative Abundance (IKZF1; [5]) | IKZF1 GFP/RFP Relative Abundance (IKZF1; [6])
CN(C1=CC(=O)N(C2CCC(=O)NC2=O)C1=O)c1ccccc1 (stereo not drawn) [Compound 28, 3-(3-(methyl(phenyl)amino)-2,5-dioxo-2,5-dihydro-1H-pyrrol-1-yl)piperidine-2,6-dione] | 0.072 | 0.050 | 0.053 | 0.969 | 0.936 | 0.946 | 1.001 | 0.917 | 0.805 | 1.006 | 1.011 | 1.064 | 0.978 | 0.996 | 1.029
O=C1CCC(N2C(=O)C=C(Nc3ccc4cc[nH]c4c3)C2=O)C(=O)N1 (stereo not drawn) [Compound 37, 3-(3-((1H-indol-6-yl)amino)-2,5-dioxo-2,5-dihydro-1H-pyrrol-1-yl)piperidine-2,6-dione] | 0.620 | 0.422 | 0.355 | 0.939 | 0.865 | 0.891 | 0.787 | 1.111 | 1.010 | 0.938 | 1.004 | 0.988 | 0.315 | 0.349 | 0.344
Cc1ccc(NC(=O)NCc2ccccc2NC2=CC(=O)N(C3CCC(=O)NC3=O)C2=O)cc1Cl (stereo not drawn) [Compound 45, 1-(3-chloro-4-methylphenyl)-3-(2-((1-(2,6-dioxopiperidin-3-yl)-2,5-dioxo-2,5-dihydro-1H-pyrrol-3-yl)amino)benzyl)urea] | 0.079 | 0.059 | 0.051 | 1.059 | 0.993 | 0.948 | 0.476 | 0.921 | 1.093 | 1.015 | 1.022 | 1.022 | 0.957 | 1.027 | 1.060
CN(C)C(=O)c1ccc(NC2=CC(=O)N(C3CCC(=O)NC3=O)C2=O)cc1 (stereo not drawn) [Compound 34, 4-((1-(2,6-dioxopiperidin-3-yl)-2,5-dioxo-2,5-dihydro-1H-pyrrol-3-yl)amino)-N,N-dimethylbenzamide] | 0.077 | 0.064 | 0.059 | 0.940 | 0.944 | 0.943 | 0.867 | 0.821 | 0.878 | 0.981 | 1.018 | 0.950 | 1.042 | 0.984 | 0.904
Cc1cc(NC2=CC(=O)N(C3CCC(=O)NC3=O)C2=O)ccc1Cl (stereo not drawn) [Compound 4, 3-(3-((4-chloro-3-methylphenyl)amino)-2,5-dioxo-2,5-dihydro-1H-pyrrol-1-yl)piperidine-2,6-dione] | 0.485 | 0.411 | 0.270 | 0.862 | 0.850 | 0.903 | 0.922 | 0.904 | 0.750 | 0.925 | 1.028 | 1.002 | 0.314 | 0.433 | 0.550
O=C(O)CCCCNC1=CC(=O)N(C2CCC(=O)NC2=O)C1=O (stereo not drawn) [Compound 22, 5-((1-(2,6-dioxopiperidin-3-yl)-2,5-dioxo-2,5-dihydro-1H-pyrrol-3-yl)amino)pentanoic acid] | 0.055 | 0.032 | 0.018 | 0.953 | 0.962 | 1.044 | 1.058 | 0.883 | 0.745 | 1.001 | 0.982 | 0.935 | 0.984 | 1.028 | 0.939
COC(=O)CCNC1=CC(=O)N(C2CCC(=O)NC2=O)C1=O (stereo not drawn) [Compound 14, Methyl 3-((1-(2,6-dioxopiperidin-3-yl)-2,5-dioxo-2,5-dihydro-1H-pyrrol-3-yl)amino)propanoate] | 0.046 | 0.040 | 0.022 | 0.955 | 0.944 | 0.983 | 1.058 | 1.018 | 0.915 | 1.022 | 0.982 | 1.040 | 1.033 | 1.031 | 1.043
